According to ChEMBL document CHEMBL1149280, “Highly selective fluorescent analogue of the potent delta-opioid receptor antagonist Dmt-Tic” (J Med Chem, 2004):
Where a SMILES comes first, the peptide text is derived from it.

How the values were obtained:
[1] = molecular target: Delta-type opioid receptor (Mus musculus) (UniProt P32300); assay: Antagonist activity at delta opioid receptor in mouse vas deferens assessed as effect on electrically evoked twitch; format: functional, tissue-based; details: filed as antagonist
Sequence of Delta-type opioid receptor (Mus musculus) (P32300 whole entry): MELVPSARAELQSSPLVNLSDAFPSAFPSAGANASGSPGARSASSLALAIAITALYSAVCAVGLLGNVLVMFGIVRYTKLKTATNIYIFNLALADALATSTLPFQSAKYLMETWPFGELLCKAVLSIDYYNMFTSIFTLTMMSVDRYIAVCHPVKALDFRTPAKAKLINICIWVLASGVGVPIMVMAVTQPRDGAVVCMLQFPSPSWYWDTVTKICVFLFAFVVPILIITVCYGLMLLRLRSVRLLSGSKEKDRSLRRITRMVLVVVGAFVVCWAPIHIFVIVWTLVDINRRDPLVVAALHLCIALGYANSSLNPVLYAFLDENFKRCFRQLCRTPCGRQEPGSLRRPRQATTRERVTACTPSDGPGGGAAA

[2] = molecular target: Opioid receptors; mu & delta (Rattus norvegicus) (UniProt P33533+P33535); assay: Selectivity of rat brain delta opioid receptor over rat brain mu opioid receptor
Sequence of Opioid receptors; mu & delta (Rattus norvegicus) (P33533 whole entry, looked up): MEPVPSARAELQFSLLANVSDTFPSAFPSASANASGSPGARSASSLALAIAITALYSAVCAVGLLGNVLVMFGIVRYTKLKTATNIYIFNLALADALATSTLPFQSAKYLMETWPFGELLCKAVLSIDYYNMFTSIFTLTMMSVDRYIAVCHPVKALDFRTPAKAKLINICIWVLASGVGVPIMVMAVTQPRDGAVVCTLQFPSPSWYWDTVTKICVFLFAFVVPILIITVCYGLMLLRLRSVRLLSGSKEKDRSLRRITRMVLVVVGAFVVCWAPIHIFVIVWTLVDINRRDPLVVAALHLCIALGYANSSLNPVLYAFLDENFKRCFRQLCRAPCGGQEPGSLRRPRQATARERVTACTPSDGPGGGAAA
Sequence of Opioid receptors; mu & delta (Rattus norvegicus) (P33535 whole entry, looked up): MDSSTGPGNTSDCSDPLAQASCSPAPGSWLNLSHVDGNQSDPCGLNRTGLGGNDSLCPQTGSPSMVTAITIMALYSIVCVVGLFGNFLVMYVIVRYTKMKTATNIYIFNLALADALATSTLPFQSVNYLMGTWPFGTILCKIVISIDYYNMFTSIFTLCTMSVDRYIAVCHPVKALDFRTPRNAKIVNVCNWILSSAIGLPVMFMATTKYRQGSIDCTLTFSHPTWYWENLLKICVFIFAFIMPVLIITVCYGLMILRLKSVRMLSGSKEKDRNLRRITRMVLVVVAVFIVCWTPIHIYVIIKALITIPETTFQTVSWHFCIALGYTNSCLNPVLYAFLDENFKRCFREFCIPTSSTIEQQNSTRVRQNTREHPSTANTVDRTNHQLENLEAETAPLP

[3] = molecular target: Mu-type opioid receptor (Cavia porcellus, UniProt P97266); assay: Agonistic activity at mu opioid receptor in guinea pig ileum assessed as inhibition of electrically evoked twitch; format: functional, tissue-based
Sequence of Mu-type opioid receptor (Cavia porcellus, UniProt P97266) (P97266 whole entry): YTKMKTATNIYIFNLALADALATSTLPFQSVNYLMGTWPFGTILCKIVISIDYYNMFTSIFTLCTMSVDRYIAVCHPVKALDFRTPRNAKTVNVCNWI

[4] = molecular target: Delta-type opioid receptor (Mus musculus, UniProt P32300); assay: Agonistic activity at delta opioid receptor in mouse vas deferens assessed as inhibition of electrically evoked twitch; format: functional, tissue-based
Sequence of Delta-type opioid receptor (Mus musculus, UniProt P32300) (P32300 whole entry): as the sequence (P32300 whole entry) above

[5] = molecular target: Delta-type opioid receptor (Rattus norvegicus, UniProt P33533); assay: Displacement of [3H]DPDPE from delta opioid receptor in rat brain synaptosomes P2 fraction; format: subcellular
Sequence of Delta-type opioid receptor (Rattus norvegicus, UniProt P33533) (P33533 whole entry): as the sequence (P33533 whole entry, looked up) above

[6] = molecular target: Mu-type opioid receptor (Rattus norvegicus, UniProt P33535); assay: Displacement of [3H]DAMGO from mu opioid receptor in rat brain synaptosomes P2 fraction; format: subcellular
Sequence of Mu-type opioid receptor (Rattus norvegicus, UniProt P33535) (P33535 whole entry): as the sequence (P33535 whole entry, looked up) above

Cc1cc(O)cc(C)c1C[C@H](N)C(=O)N1Cc2ccccc2CC1C(=O)N[C@@H](CCC(=O)O)C(=O)NCCCCCNC(=S)Nc1ccc(-c2c3ccc(=O)cc-3oc3cc(O)ccc23)c(C(=O)O)c1 (stereo not given in full)
Activity [1]: Irreversible Antagonist | Ratio Ki [2]: 4370

Cc1cc(O)cc(C)c1C[C@H](N)C(=O)N1Cc2ccccc2CC1C(=O)N[C@@H](CCC(=O)O)C(=O)NCCCCCN (stereo not given in full)
Ratio Ki [2]: 1700

Cc1cc(O)cc(C)c1C[C@H](N)C(=O)N1Cc2ccccc2C[C@H]1C(=O)N[C@@H](CCC(=O)O)C(=O)NCCCCCN
IC50 [3]: > 1000 nM

Cc1cc(O)cc(C)c1C[C@H](N)C(=O)N1Cc2ccccc2C[C@H]1C(=O)N[C@@H](CCC(=O)O)C(N)=O (HELM PEPTIDE1{[Cc1cc(O)cc(C)c1C[C@H](N)C(=O)[*:2]].[Tic].E.[am]}$$$$V2.0)
IC50 [4]: 2.58 nM (agonist) | IC50 [3]: > 1000 nM | Ki [5]: 0.06 nM (antagonist) | Ki [6]: 1.36 µM (antagonist) | Ratio Ki [2]: 22600

Cc1cc(O)cc(C)c1C[C@H](N)C(=O)N1Cc2ccccc2C[C@H]1C(=O)N[C@@H](CCC(=O)O)C(=O)NCCCCCNC(=S)Nc1ccc(-c2c3ccc(=O)cc-3oc3cc(O)ccc23)c(C(=O)O)c1
IC50 [3]: > 1000 nM
